{"source": "patent US20250120975A1", "about": "“INTEGRIN INHIBITORS FOR TREATMENT OF PRIMARY SCLEROSING CHOLANGITIS” (Pliant Therapeutics, Inc., priority 2023, published 2025)", "key": {"[1]": {"system": "PCLivS from human liver tissue with biliary fibrosis (PSC, PBC)", "test": "Fibrotic gene expression (NanoString) in precision cut liver slices", "format": "cell-based", "conditions": "for % Inhibition of expression COL1A1 / % Inhibition of expression COL1A2: PCLivS from a single PSC liver", "source_text": "A human liver tissue explant was obtained from a PSC patient undergoing liver transplantation.\nSlicing: To slice, 8-mm cores were punctured from the liver tissue and were stored in ice cold UW solution until slicing. A tissue core was glued onto the center of the plunger of the specimen syringe for slicing. The core was embedded in 2% low gelling temperature agarose made up in milliQ water. The thickness of the slice was adjusted to 400 μm and was sectioned into oxygenated KHB occurs. The slices were stored in cold UW solution on ice until all slices were cut.\nCulture: The compounds were diluted to 1000× concentration in 100% DMSO. The compounds were diluted in a medium with a final concentration of 0.1% DMSO before transferring the slices and making a fresh medium for each 24-H medium change. Before being used for slice culture, all media was equilibrated in the incubator at culture conditions for 30 minutes. After all slices have been cut, all slices were transferred to wells prefilled with oxygenated, warmed, and equilibrated WEGG. The slices were incubated for 1 hour in the incubator at a temperature of 37° C., 5% CO2, 80% 02, 100% humidity on shaking platform set at 55 rpm. After this one-hour recovery, the slices were transferred to wells prefilled with oxygenated, warmed, and equilibrated WEGG with appropriate treatments. The slices were distributed into the treatment groups to account for inter-core variability. The slices were cultured at 37° C., 80% 02, 5% CO2, 100% humidity on shaking platform set at 55 rpm. The medium was changed after 24 hours.\nThe slices were removed from the well and rinsed in PBS. Excess liquid was removed. The slices were transferred to a microtube pooling all three slices from the same treatment into one tube. The pooled slices were snap frozen in liquid nitrogen and placed on dry ice until all samples were collected and then transferred to −80° C. for storage. For media collection, 140 μL of medium was pooled from each well within a treatment group and transferred to a 96-well Axygen plate. After sealing the plate, spin down occurred at 4000×g for 10 minutes at 4° C. Then, 130 μL aliquots were transferred into 3 new plates. The plates were sealed and stored at −80° C.\n(S)-4-((2-methoxyethyl)(4-(5,6,7,8-tetrahydro-1,8-naphthyridin-2-yl)butyl)amino)-2-(quinazolin-4-ylamino)butanoic acid was tested at 100 nM, 1 μM, and 10 μM. OCA, an FXR agonist in clinical trials for PSC, was used at 250 nM and 2.5 μM reflecting Cmax levels observed in clinical trials. An ALK5 inhibitor (R268712) was used at 1 μM (400 times its IC50 per manufacturer) to target max inhibition of the ALK5 receptor.\nMethods: Lysis buffer was made with one third RLT buffer in RNAse-free water and 2 mg/mL proteinase K. About 100-200 μL lysis buffer was added to each pool of 3 liver slices. Samples were incubated at 55° C. in the bead bath for 2 hours and 45 minutes, vortexing every 30 minute. Samples were centrifuged and the supernatant aliquoted in 15 μL aliquots into 96-well Axygen plates.\nMethods: nCounter PlexSet was run according to standard protocol. Briefly, probe A and probe B were diluted with TE-tween to Working Probe Pools and mixed with hybridization buffer. This master mix was added to the A-H PlexSets and mixed. Each PlexSet was added across a row to a 96 well qPCR plate and proteinase K was added to a final concentration of 2 mg/mL. Lysate from samples was added to appropriate wells and mixed. The plate was sealed, spun, and placed in thermocycler at 67° C. for 16 hours. Hybridized samples were pooled down columns and 35 μL were loaded on a Sprint Cartridge and run on the nCounter Sprint. Data analysis was performed in nSolver using background thresholding based on negative controls, positive control normalization, reference sample normalization and normalization to housekeeping genes (GUSB, HPRT1, POLR1B, RPLP0, SRFS4, and/or UBC). […]"}, "[2]": {"system": "PCLivS from human liver tissue with biliary fibrosis (PSC, PBC)", "test": "Fibrotic gene expression (NanoString) in precision cut liver slices", "format": "cell-based"}, "[3]": {"system": "BALB/c.Mdr2−/− mouse model of biliary fibrosis", "test": "Connective tissue (picrosirius red) histology", "format": "in vivo", "conditions": "300 and 1000 mg/kg, 6 weeks", "source_text": "(§1) The tissue source is BALBc.Mdr2-/−male mice that were 6 weeks old. The Mdr2(abcb4)−/− mouse model of sclerosing cholangitis has been previously described and is a model of spontaneously progressive hepatic fibrosis in mice with deletion of the biliary phospholipid flippase on fibrosis-susceptible background (Mdr2(abcb4)^−/−. BALB/c mouse). See N. Ikenaga, et al. (2015) Am J Pathol. 185 (2): 325-334, the entire contents of which are hereby incorporated by reference in their entirety.\n(§2) (S)-4-((2-methoxyethyl)(4-(5,6,7,8-tetrahydro-1,8-naphthyridin-2-yl)butyl)amino)-2-(quinazolin-4-ylamino)butanoic acid (or PBS) was dosed once daily orally at 100 mg/kg, 300 mg/kg or 1000 mg/kg (see Table B-2) starting at 6 weeks after birth of the subject and continuing for 6 weeks. All animals were euthanized and necropsied at the end of week 12.\nConnective tissue stains were carried out to morphometrically assess fibrosis, through analysis of 10 high power fields per animal."}, "other integrin receptors": {"system": "other integrin receptors", "test": "Integrin-ligand binding assays (selectivity)", "conditions": "including leukocyte-expressed integrins"}, "[4]": {"system": "BALB/c.Mdr2−/− mouse model of biliary fibrosis", "test": "Relative and total liver collagen (hydroxyproline)", "format": "in vivo", "conditions": "6 weeks", "source_text": "as §1, §2\nLiver collagen was determined biochemically as hydroxyproline (OHP). See N. Ikenaga, et al. (2015) Am J Pathol. 185 (2): 325-334, the entire contents of which are hereby incorporated by reference in their entirety. Two fresh liver pieces from the left and right liver lobe (120-160 mg each) were hydrolyzed in 2 mL 6N HCl at a temperature of 110° C. for 16 h. Moreover, 20 μL of hydrolysate was evaporated under N2 and OHP was quantified using the chloramine-T/dimethylamino-benzaldehyde method. OHP levels were used to calculate relative (per 100 mg of wet liver) and total (obtained by multiplying liver weights with relative hepatic OHP) hepatic collagen content."}, "[5]": {"conditions": "relative to inhibition with high dose ALK5 inhibitor, PCLivS from 10 livers"}, "[6]": {"conditions": "≥1 μM, PCLivS from 10 livers with biliary fibrosis (6 PSC, 4 PBC), 2 days"}, "[7]": {"conditions": "1000 mg/kg, relative to the vehicle control"}}}
{"smiles": "COCCN(CCCCc1ccc2c(n1)NCCC2)CC[C@H](Nc1ncnc2ccccc12)C(=O)O", "note": "[Bexotegrast, (S)-4-((2-methoxyethyl)(4-(5,6,7,8-tetrahydro-1,8-naphthyridin-2-yl)butyl)amino)-2-(quinazolin-4-ylamino)butanoic acid]", "values": [{"measurement": "% Inhibition of expression COL1A1", "setting": "[1]; 100 nM, 2 days", "result": "−6", "unit": "%"}, {"measurement": "% Inhibition of expression COL1A2", "setting": "[1]; 100 nM, 2 days", "result": "−8", "unit": "%"}, {"measurement": "% Inhibition of expression COL1A1", "setting": "[1]; 1 μM, 2 days", "result": 27, "unit": "%"}, {"measurement": "% Inhibition of expression COL1A2", "setting": "[1]; 1 μM, 2 days", "result": 9, "unit": "%"}, {"measurement": "% Inhibition of expression COL1A1", "setting": "[1]; 10 μM, 2 days", "result": 61, "unit": "%"}, {"measurement": "% Inhibition of expression COL1A2", "setting": "[1]; 10 μM, 2 days", "result": 41, "unit": "%"}, {"measurement": "dose dependence of COLIA1 and COLIA2 mRNA expression", "setting": "[1]; PCLivS from human PSC liver tissue, 2 days", "result": "reduced in a dose dependent manner"}, {"measurement": "inhibition of the TGF-β-driven COL3A1 expression", "setting": "[1]; [5]", "result": "≤ 41", "unit": "%"}, {"measurement": "inhibition of the TGF-β-driven COLIA1 expression", "setting": "[1]; [5]", "result": "up to 28%"}, {"measurement": "inhibition of the TGF-β-driven TGF-81 expression", "setting": "[1]; [5]", "result": "≤ 48", "unit": "%"}, {"measurement": "trend down in overall expression of COLIA1", "setting": "[1]; [6]", "result": 22, "unit": "%"}, {"measurement": "inhibition of the TGF-β-driven COLIA2 expression", "setting": "[2]; [5]", "result": "≤ 43", "unit": "%"}, {"measurement": "significant reduction in expression of COLIA2", "setting": "[2]; [6]", "result": 19, "unit": "%"}, {"measurement": "significant reduction in expression of TGF-81", "setting": "[2]; [6]", "result": 24, "unit": "%"}, {"measurement": "trend down in overall expression of COL3A1", "setting": "[2]; [6]", "result": 15, "unit": "%"}, {"measurement": "fibrosis by picrosirius red histological staining", "setting": "[3]", "result": "significant reductions"}, {"measurement": "selectivity for αVβ6 and αVβ1 over other integrin receptors", "setting": "other integrin receptors", "result": "highly selective"}, {"measurement": "reduction in total hepatic collagen", "setting": "[4]; 1000 mg/kg PO/QD", "result": "approximately 75%"}, {"measurement": "relative hepatic collagen content (normalized to liver weight)", "setting": "[4]; [7]", "result": "decreased"}, {"measurement": "total hepatic collagen content", "setting": "[4]; [7]", "result": "decreased"}]}
